Experimental data as given in patent US11472806B2, “Substituted heterocyclic compounds as allosteric modulators of group II metabotropic glutamate receptors” (Domain Therapeutics, priority 2017, dated 2022).
Where a name gives a salt, the structure may show the parent alone.

How the values were obtained:
human mGluR3 (hmGluR3) = target: T1, human mGluR3 (hmGluR3) (Homo sapiens, UniProt Q14832); assay: Human mGluR3 positive allosteric modulator evaluation using Ca++ functional assay; type: cell-based; conditions: hmGluR3 transiently over-expressed in HEK-293 cells; cells stimulated by an EC50 glutamate concentration; intracellular Ca2+ (Fluo4AM, FLIPR Tetra)
T1 construct: expressed in transfected cells; host or cells: HEK-293 cells, transient co-transfection by electroporation
Method: Example 89: Human mGluR3 Positive Allosteric Modulator Evaluation Using Ca++ Functional Assay
Compounds of the present invention were tested successively for their agonist and positive allosteric modulator activities on human mGluR3 (hmGluR3) transiently over-expressed in HEK-293 cells. Compounds exert agonist activity if they are able to activate hmGluR3 by themselves, i.e., in absence of the endogenous agonist glutamate; and they exert positive allosteric modulator activity if they increase the action of the endogenous agonist glutamate.
Cell Culture and Transfection:
HEK-293 cells were maintained in Modified Eagle's Medium supplemented with 10% Foetal Calf Serum, 1% Penicillin/Streptomycin and 1% non-essential amino acids at 37° C./5% CO2. Cells were co-transfected by electroporation with four DNA plasmids encoding hmGluR3, a chimeric G protein allowing redirection of the activation signal toward intracellular calcium pathway, and two glutamate transporters so as to decrease extracellular glutamate levels and avoid receptor desensitization (Brabet I et al., Neuropharmacology 37(8), 1043-51, 1998). After transfection, cells were seeded in 75 cm^2 culture flasks, and cultured for 24 h.
Calcium Assa EC50 determination:
Receptor activity was detected by changes in intracellular calcium measured using the fluorescent Ca^2+ sensitive dye, Fluo4AM (Molecular Probes).
The day of the assay, medium was aspirated and replaced during 3 hrs by freshly prepared buffer B (HBSS 1×, Hepes 20 mM, MgSO4-7H2O 1 mM, Na2CO3 3.3 mM, CaCl2-2H2O 1.3 mM, 0.5% BSA, Probenecid 2.5 mM). Then, cells were loaded at 37° C./5% CO2 for 1.5 hrs with buffer B containing 1 μM Fluo4AM, 0.1 mg/mL Pluronic Acid, 7 μg/mL Glutamate Pyruvate Transaminase and 2 mM sodium pyruvate. Afterwards cells were washed with buffer B. Cells were then detached from the 75 cm^2 culture flasks with Accutase® (5 min incubation at 37° C.), centrifuged (5 min at 840 rpm), resuspended in buffer B and finally seeded at a density of 30,000 cells/well in black-walled clear-bottom 384-well plates. Addition of compounds on cells and intracellular Ca^2+ measurements (excitation 485 nm, emission 525 nm) were performed by the fluorescence microplate reader FLIPR Tetra (Molecular Devices).
Agonist and positive allosteric modulator activities of compounds were consecutively evaluated on the same cells plate. Agonist activity was first tested during 10 min with the addition of compound alone on the cells. Then, the cells were stimulated by an EC50 glutamate concentration and fluorescence was recorded for additional 3 min. EC50 glutamate concentration is the concentration giving 50% of the maximal glutamate response. Agonist and/or positive allosteric modulator activity(ies) were evaluated in comparison to basal signal or signal evoked by EC50 glutamate concentration alone, respectively.
For potency determination, a dose-response test was performed using 20 concentrations of each compound of the invention. Dose-response curves were fitted using the sigmoïdal dose-response (variable slope) analysis in XLfit Scientific Curve Fitting for Excel (IDBS). EC50 of agonist/EC50 of positive allosteric modulator activity(ies) were calculated. Dose-response experiments were all performed in duplicate, two times independently.

T1 sequence (Q14832 23-879): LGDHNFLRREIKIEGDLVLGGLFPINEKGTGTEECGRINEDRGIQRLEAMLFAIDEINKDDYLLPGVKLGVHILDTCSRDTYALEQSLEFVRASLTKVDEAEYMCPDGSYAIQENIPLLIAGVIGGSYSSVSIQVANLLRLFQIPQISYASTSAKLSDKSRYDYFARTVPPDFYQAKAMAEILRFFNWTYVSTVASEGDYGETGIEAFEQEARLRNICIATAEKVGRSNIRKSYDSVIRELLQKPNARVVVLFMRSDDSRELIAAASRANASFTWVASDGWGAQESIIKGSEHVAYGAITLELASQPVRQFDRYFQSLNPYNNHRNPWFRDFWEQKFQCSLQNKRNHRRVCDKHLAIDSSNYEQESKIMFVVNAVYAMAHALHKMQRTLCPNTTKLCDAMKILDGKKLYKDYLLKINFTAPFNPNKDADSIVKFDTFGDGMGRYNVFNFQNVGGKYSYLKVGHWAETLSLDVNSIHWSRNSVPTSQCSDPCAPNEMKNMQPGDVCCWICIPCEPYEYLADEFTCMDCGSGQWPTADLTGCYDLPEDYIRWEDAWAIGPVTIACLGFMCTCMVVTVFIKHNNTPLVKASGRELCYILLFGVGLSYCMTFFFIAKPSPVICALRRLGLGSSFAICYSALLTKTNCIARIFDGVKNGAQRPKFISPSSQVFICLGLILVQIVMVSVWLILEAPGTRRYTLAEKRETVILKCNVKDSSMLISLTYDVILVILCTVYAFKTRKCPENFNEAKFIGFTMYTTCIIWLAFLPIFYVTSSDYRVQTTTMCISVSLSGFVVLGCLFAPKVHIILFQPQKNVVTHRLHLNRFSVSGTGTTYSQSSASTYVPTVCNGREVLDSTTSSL

| Structure (SMILES) | melting point | EC50 (human mGluR3 (hmGluR3)) |
| --- | --- | --- |
| Cc1ncccc1-c1ccc2c(c1)-c1ccccc1C(=O)N(C)C21CC1 (as salt: hydrochloride) [Example 21, 10-(2-Methyl-pyridin-3-yl)-6-methyl-6,7-dihydro-spiro[dibenzo[c,e]azepine-7,1′-cyclopropan]-5-one, hydrochloride] | > 250 °C |  |
| Cc1ncccc1-c1cnc2c(c1)-n1cccc1C(=O)N(C)C2 (as salt: hydrochloride) [Example 6, 5-Methyl-9-(2-methyl-pyridin-3-yl)-5,6-dihydro-5,7,10b-triaza-benzo[e]azulen-4-one, dihydrochloride] | > 250 °C |  |
| Cc1ncccc1-c1cc2c(nn1)CN(C)C(=O)c1cccn1-2 (as salt: hydrochloride) [Example 8, 5-Methyl-9-(2-methyl-pyridin-3-yl)-5,6-dihydro-5,7,8,10b-tetraaza-benzo[e]azulen-4-one, dihydrochloride] | > 250 °C |  |
| COCn1cc2c(n1)C(=O)N(C)C1(CC1)c1ccc(-c3ccc(F)cn3)cc1-2 [Example 76, 2-(Methoxymethyl)-5-methyl-9-(5-fluoro-pyridin-2-yl)-2H-spiro[benzo[c]pyrazolo[4,3-e]azepine-6,1′-cyclopropan]-4(5H)-one] | 219 to 223 °C | < 100 nM |
| CN1Cc2ccc(-c3ccc(F)nc3)cc2-c2cc(F)cnc2C1=O [Example 47, 2-Fluoro-10-(6-fluoro-pyridin-3-yl)-6-methyl-6,7-dihydro-4,6-diaza-dibenzo[a, c]cyclohepten-5-one] |  | 100 to 1000 nM |
| Cc1ncccc1-c1cnc2c(c1)-n1cccc1C(=O)N(C)C2 [Example 6, 5-Methyl-9-(2-methyl-pyridin-3-yl)-5,6-dihydro-5,7,10b-triaza-benzo[e]azulen-4-one, dihydrochloride] |  | > 10000 nM |
| COCn1cc2c(n1)C(=O)N(C)C1(CC1)c1ccc(-c3ccc(F)nc3)cc1-2 [Example 75, 2-(Methoxymethyl)-5-methyl-9-(6-fluoro-pyridin-3-yl)-2H-spiro[benzo[c]pyrazolo[4,3-e]azepine-6,1′-cyclopropan]-4(5H)-one] | 198 to 200 °C |  |
| COCn1cc2c(n1)C(=O)N(C)Cc1ccc(-c3ccc(F)nc3)cc1-2 [Example 66, 2-Methoxymethyl-5-methyl-9-(6-fluoro-pyridin-3-yl)-5,6-dihydro-2H-2,3,5-triaza-benzo[e]azulen-4-one] |  | 100 to 1000 nM |
| Cc1ncccc1-c1cnc2c(n1)-n1cccc1C(=O)N(C)C2 (as salt: hydrochloride) [Example 7, 5-Methyl-9-(2-methyl-pyridin-3-yl)-5,6-dihydro-5,7,10,10b-tetraaza-benzo[e]azulen-4-one, dihydrochloride] | > 250 °C |  |
